Drawing on US10138236B2, “Factor xia-inhibiting pyridobenzazepine and pyridobenzazocine derivatives” (BAYER PHARMA AKTIENGESELLSCHAFT, priority 2014, dated 2018), this text covers IC50 for seven molecules.

Molecules are shown by their SMILES.

In one experiment the target is human plasma kallikrein (Homo sapiens (Human), UniProt P03952). Nature of the experiment: Determination of the plasma kallikrein activity. To be noted: plasma kallikrein from Kordia, substrate H-Pro-Phe-Arg-AMC, fluorescence. The class given is biochemical. How it is done: a.5) Determination of the Plasma Kallikrein Activity
human plasma kallikrein, sequence (P03952 391-638): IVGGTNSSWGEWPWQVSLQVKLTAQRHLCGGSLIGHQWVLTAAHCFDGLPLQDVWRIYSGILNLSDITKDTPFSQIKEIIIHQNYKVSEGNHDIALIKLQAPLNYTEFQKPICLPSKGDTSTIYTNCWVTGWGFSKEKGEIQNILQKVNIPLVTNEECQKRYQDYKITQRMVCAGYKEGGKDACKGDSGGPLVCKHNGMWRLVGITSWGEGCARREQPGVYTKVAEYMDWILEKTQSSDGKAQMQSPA
human plasma kallikrein, sequence (P03952 20-390 partner): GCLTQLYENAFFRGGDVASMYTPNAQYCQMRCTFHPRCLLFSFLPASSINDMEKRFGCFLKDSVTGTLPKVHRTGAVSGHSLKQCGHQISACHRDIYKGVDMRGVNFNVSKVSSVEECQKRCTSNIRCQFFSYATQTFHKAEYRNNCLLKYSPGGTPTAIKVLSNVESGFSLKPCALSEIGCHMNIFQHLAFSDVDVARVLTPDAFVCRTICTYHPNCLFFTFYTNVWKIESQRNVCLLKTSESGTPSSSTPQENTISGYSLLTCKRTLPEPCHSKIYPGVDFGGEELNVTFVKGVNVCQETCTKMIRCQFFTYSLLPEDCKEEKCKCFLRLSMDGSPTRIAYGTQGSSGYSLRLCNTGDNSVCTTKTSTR
To determine the plasma kallikrein inhibition of the substances according to the invention, a biochemical test system is used which utilizes the reaction of a peptidic plasma kallikrein substrate to determine the enzymatic activity of human plasma kallikrein. Here, plasma kallikrein cleaves from the peptic plasma kallikrein substrate the C-terminal aminomethylcoumarin (AMC), the fluorescence of which is measured. The determinations are carried out in microtitre plates.
1 μl of the diluted substance solutions is placed into each of the wells of white microtitre plates from Greiner (384 wells). 20 μl of assay buffer (50 mM Tris/HCl pH 7.4; 100 mM sodium chloride solution; 5 mM of calcium chloride solution; 0.1% of bovine serum albumin) and 20 μl of plasma kallikrein from Kordia (0.6 nM in assay buffer) are then added successively. After 15 min of incubation, the enzyme reaction is started by addition of 20 μl of the substrate H-Pro-Phe-Arg-AMC dissolved in assay buffer (10 μM in assay buffer) from Bachem, the mixture is incubated at room temperature (22° C.) for 30 min and fluorescence is then measured (excitation: 360 nm, emission: 460 nm). The measured emissions of the test batches with test substance are compared to those of control batches without test substance (only dimethyl sulphoxide instead of test substance in dimethyl sulphoxide), and IC50 values are calculated from the concentration/activity relationships.

A further experiment deals with human factor XIa (Homo sapiens (Human), UniProt P03951). Nature of the experiment: Measurement of FXIa inhibition. The class given is biochemical. To be noted: factor XIa from Kordia, substrate Boc-Glu(OBzl)-Ala-Arg-AMC, fluorescence. On the procedure: a.1) Measurement of FXIa Inhibition
human factor XIa, sequence (P03951 388-625): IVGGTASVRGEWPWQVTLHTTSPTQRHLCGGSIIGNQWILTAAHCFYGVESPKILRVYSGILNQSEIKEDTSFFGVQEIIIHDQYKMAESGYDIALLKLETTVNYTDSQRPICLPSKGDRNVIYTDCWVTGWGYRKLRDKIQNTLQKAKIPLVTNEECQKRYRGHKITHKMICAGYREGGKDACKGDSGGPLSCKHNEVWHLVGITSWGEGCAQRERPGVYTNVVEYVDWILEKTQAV
human factor XIa, sequence (P03951 19-387 partner): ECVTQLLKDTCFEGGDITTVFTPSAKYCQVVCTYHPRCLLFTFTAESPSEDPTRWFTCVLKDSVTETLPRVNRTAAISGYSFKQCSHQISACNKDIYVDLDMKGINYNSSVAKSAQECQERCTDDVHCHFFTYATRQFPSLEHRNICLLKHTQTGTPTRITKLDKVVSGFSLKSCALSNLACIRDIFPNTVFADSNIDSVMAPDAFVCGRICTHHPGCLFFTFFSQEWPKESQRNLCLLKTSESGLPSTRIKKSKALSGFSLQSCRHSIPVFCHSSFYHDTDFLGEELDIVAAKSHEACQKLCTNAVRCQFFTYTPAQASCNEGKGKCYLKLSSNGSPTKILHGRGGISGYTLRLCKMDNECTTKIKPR
The factor XIa inhibition of the substances according to the invention is determined using a biochemical test system which utilizes the reaction of a peptidic factor XIa substrate to determine the enzymatic activity of human factor XIa. Here, factor XIa cleaves from the peptic factor XIa substrate the C-terminal aminomethylcoumarin (AMC), the fluorescence of which is measured. The determinations are carried out in microtitre plates.
1 μl of the diluted substance solutions is placed into each of the wells of white microtitre plates from Greiner (384 wells). […] After 15 min of incubation, the enzyme reaction is started by addition of 20 μl of the factor XIa substrate Boc-Glu(OBzl)-Ala-Arg-AMC dissolved in assay buffer (10 μM in assay buffer) from Bachem, the mixture is incubated at room temperature (22° C.) for 30 min and fluorescence is then measured (excitation: 360 nm, emission: 460 nm). The measured emissions of the test batches with test substance are compared to those of control batches without test substance (only dimethyl sulphoxide instead of test substance in dimethyl sulphoxide), and IC50 values are calculated from the concentration/activity relationships.

For the molecule `COCCC(C(=O)Nc1csc(C(=O)O)c1)n1cc2c(cc1=O)-c1cc(Cl)ccc1CC1(CC1)NC2=O` (centres unmarked) [Example 24, 4-{[2-(11′-Chloro-2′,5′-dioxo-2′,5′,6′,8′-tetrahydro-3′H-spiro[cyclopropane-1,7′-pyrido[3,4-e][3]benzazocine]-3′-yl)-4-methoxybutanoyl]amino}thiophene-2-carboxylic acid], the values for the IC50 against human plasma kallikrein and on human factor XIa were 800 nM and 35 nM, respectively.

With `COCCC(C(=O)Nc1ccc2[nH]ncc2c1)n1cc2c(cc1=O)-c1cc(Cl)ccc1CC1(CC1)NC2=O` (centres unmarked) [Example 18, 2-(11′-Chloro-2′,5′-dioxo-2′,5′,6′,8′-tetrahydro-3′H-spiro[cyclopropane-1,7′-pyrido[3,4-e][3]benzazocine]-3′-yl)-N-(1H-indazol-5-yl)-4-methoxybutanamide], the IC50 at human plasma kallikrein was 330 nM; at human factor XIa, 21 nM.

Regarding `O=C(Cn1cc2c(cc1=O)-c1cc(Cl)ccc1CCNC2=O)Nc1ccc(-c2noc(=O)[nH]2)cc1` [Example 5, 2-(11-Chloro-2,5-dioxo-5,6,7,8-tetrahydropyrido[3,4-e][3]benzazocin-3(2H)-yl)-N-[4-(5-oxo-4,5-dihydro-1,2,4-oxadiazol-3-yl)phenyl]acetamide], the figures for the IC50 at human plasma kallikrein and on human factor XIa were 8300 nM and 350 nM, respectively.

For the molecule `CCC(C(=O)Nc1ccc(C(=O)O)cc1)n1cc2c(cc1=O)-c1cc(Cl)ccc1CCNC2=O` (centres unmarked) [Example 6, 4-{[2-(11-Chloro-2,5-dioxo-5,6,7,8-tetrahydropyrido[3,4-e][3]benzazocin-3(2H)-yl)butanoyl]amino}benzoic acid], the IC50 on human plasma kallikrein worked out at 1900 nM; at human factor XIa it was 28 nM.

For `CC(C)CC(C(=O)Nc1ccc(-c2noc(=O)[nH]2)cc1)n1cc2c(cc1=O)-c1cc(Cl)ccc1CCNC2=O` (centres unmarked) [Example 9, 2-(11-Chloro-2,5-dioxo-5,6,7,8-tetrahydropyrido[3,4-e][3]benzazocin-3(2H)-yl)-4-methyl-N-[4-(5-oxo-4,5-dihydro-1,2,4-oxadiazol-3-yl)phenyl]pentanamide], the results for the IC50 against human plasma kallikrein and against human factor XIa were 3800 nM and 140 nM, respectively.

Regarding `CCC(C(=O)Nc1ccc(-c2noc(=O)[nH]2)cc1)n1cc2c(cc1=O)-c1cc(Cl)ccc1CNC2=O` (centres unmarked) [Example 2, 2-(10-Chloro-2,5-dioxo-2,5,6,7-tetrahydro-3H-pyrido[3,4-d][2]benzazepin-3-yl)-N-[4-(5-oxo-4,5-dihydro-1,2,4-oxadiazol-3-yl)phenyl]butanamide], the concentration for half-maximal inhibition (IC50) at human plasma kallikrein is 4900 nM; against human factor XIa, 280 nM.

Take `COCCC(C(=O)Nc1ccc(C(N)=O)nc1)n1cc2c(cc1=O)-c1cc(Cl)ccc1CC1(CC1)NC2=O` (centres unmarked) [Example 21, 5-{[2-(11′-Chloro-2′,5′-dioxo-2′,5′,6′,8′-tetrahydro-3′H-spiro[cyclopropane-1,7′-pyrido[3,4-e][3]benzazocine]-3′-yl)-4-methoxybutanoyl]amino}pyridine-2-carboxamide]: the values for the IC50 at human plasma kallikrein and against human factor XIa were 910 nM and 34 nM, respectively.

The term IC50 denotes the concentration that gives 50% inhibition.
